Earlier results on 1 compound are cited in patent US20200281134A1, “GROWTH SUBSTRATE PRODUCT” (ROCKWOOL International A/S, priority 2015, published 2020).

Broadly, the pKa is the pH at which an ionisable group is half protonated.

For the series the following is noted: 3-hydroxy group.

Take `O=C1O[C@H]([C@@H](O)CO)C(O)=C1O` [ascorbic acid, Ascorbic acid]: the pKa is listed as 4.04.
